Literature values, collected in patent US7402581B2, “Azetidine compounds” (Albireo AB, priority 2003, dated 2008).

Target: T1, Human Neurokinin-2 (NK2) Receptor (Homo sapiens, UniProt P21452)
T1 sequence (P21452 1-398): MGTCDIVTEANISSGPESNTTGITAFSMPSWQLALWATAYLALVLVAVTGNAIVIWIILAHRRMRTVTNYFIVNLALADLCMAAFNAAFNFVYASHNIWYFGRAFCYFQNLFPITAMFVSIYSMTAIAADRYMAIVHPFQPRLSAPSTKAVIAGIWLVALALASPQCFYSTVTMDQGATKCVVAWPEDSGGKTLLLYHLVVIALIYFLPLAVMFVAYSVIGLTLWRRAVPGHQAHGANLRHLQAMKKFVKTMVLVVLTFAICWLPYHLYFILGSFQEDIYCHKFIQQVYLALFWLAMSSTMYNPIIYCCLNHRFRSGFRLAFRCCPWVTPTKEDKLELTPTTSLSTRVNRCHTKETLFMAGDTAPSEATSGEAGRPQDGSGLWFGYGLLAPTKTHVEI
Settings: reported in Bioorganic & Medicinal Chemistry Letters 2003

CN(CC(CCN1CC(N2CCOCC2)C1)c1ccc(Cl)c(Cl)c1)C(=O)c1ccccc1 (stereo not shown) [N-[2-(3,4-dichlorophenyl)-4-(3-morpholin-4-ylazetidin-1-yl)butyl]-N-methylbenzamide]
functional NK2 receptor antagonistic properties: functional NK2 receptor antagonistic properties
